# According to patent US5753647A, “Acylamino-substituted hetrazepines” (Boehringer Ingelheim KG, priority 1991, dated 1998):
# Target: T1, PAF receptor on washed human platelets (Homo sapiens, UniProt P25105)
# T1 construct: endogenous in cells; host or cells: human blood platelets (thrombocytes) from healthy donors, purified by Sepharose CL-2B chromatography
# Test: not given
# Conditions: as known from the prior art (EP 367 110); read-out: binding value Ki of prior art compound; cited from earlier work
# T1 sequence (P25105 whole entry): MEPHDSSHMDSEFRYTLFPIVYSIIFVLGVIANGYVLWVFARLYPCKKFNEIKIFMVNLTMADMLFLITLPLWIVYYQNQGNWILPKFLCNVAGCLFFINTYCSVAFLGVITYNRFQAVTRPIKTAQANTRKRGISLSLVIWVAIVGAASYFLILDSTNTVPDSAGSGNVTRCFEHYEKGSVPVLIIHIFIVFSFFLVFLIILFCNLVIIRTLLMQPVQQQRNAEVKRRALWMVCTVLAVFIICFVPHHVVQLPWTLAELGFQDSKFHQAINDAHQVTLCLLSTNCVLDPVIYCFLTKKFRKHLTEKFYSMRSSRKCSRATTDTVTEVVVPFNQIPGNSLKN
row,Compound,Ki [nM]
1,"Cc1nnc2n1-c1sc3c(c1C(c1ccccc1Cl)=NC2)CCN(C(=O)C1CC1)C3 [3-cyclopropylcarbonyl-6-(2-chlorophenyl)-11-methyl-2,3,4,5-tetrahydro-4H-pyrido-[4,3:4',5']thieno[3,2-f][1,2,4]triazolo[4,3-a]-1,4-diazepine]",13

# Target: T1, PAF receptor on washed human platelets
# Test: [^3 H]PAF-receptor binding to vital human blood platelets
# Conditions: vital human thrombocytes
# Protocol: [^3 H]PAF-Receptor-Bonding to Vital Human Blood Platelets
# The competitive interaction of test substances (here PAF-antagonists) with the known interaction of the radioligand [^3 H]PAF to the same receptor is determined. The binding studies are carried out on vital human thrombocytes. Blood samples from healthy donors were diluted with ACD-buffer and centrifuged (15 min., 160×g). The platelet-rich plasma is purified by chromatography on Sepharose CL-2B [using HEPES-buffer, pH 7.4 at 20° C. for eluting].
# Defined quantities [e.g. 800 μl] of the platelet suspension were incubated for 90 minutes at ambient temperature, i.e. mixed with: a) a 30 picomolar [^3 H]PAF-solution diluted with buffer. b) a 30 picomolar [3 H] PAF-solution which simultaneously contains a μ-molar (unlabelled) PAF-solution, c) with the 30 picomolar [^3 H]PAF-solution and the solutions of the test substances (different concentrations) d) used to determine total binding, e) used to determine non-specific binding.
# The reaction was stopped by vacuum filtration. The filters with the blood platelets were mixed with scintillation liquid and the residual radioactivity measured in a counter.
# The specific binding is obtained from the total binding minus the nonspecific binding. Either the IC50 values (i.e. the concentration of test substance which displaces 50% of the radioligand--in this case [^3 H] PAF--from the receptor) is determined and this is specified, or the Ki -values are calculated from this. This may be done by computer-aided calculation using an iteration process of the binding curves. IC50 and Ki-values are a measurement of the receptor affinity of the test substance. Lower values indicate a higher affinity.
row,Compound,Ki [nM]
1,"3-(4-Isobutylbenzoyl)-6-(2-chlorophenyl)-8,11-dimethyl-2,3,4,5-tetrahydro-4H-pyrido[4,3:4',5']thieno-[3,2-f][1,2,4]triazolo[4,3-a]1,4diazepine [Example 2]",1.8
2,"Cc1nnc2n1-c1sc3c(c1C(c1ccccc1Cl)=NC2C)CCN(C(=O)c1ccc(Cl)cc1)C3 (centres unmarked) [Example 1, 3-(4-Chlorobenzoyl)-6-(2-chlorophenyl)-8,11-dimethyl-2,3,4,5-tetrahydro-4H-pyrido[4,3 :4',5']thieno-[3,2-f][1,2,4]triazolo[4,3-a]-1,4-diazepine]",2.9
3,Cc1nnc2n1-c1sc3c(c1C(c1ccccc1Cl)=NC2C)CCN(C(=O)c1ccc(Cl)cc1)C3 (centres unmarked) [Example 1a],1.9
4,Cc1nnc2n1-c1sc3c(c1C(c1ccccc1Cl)=NC2C)CCN(C(=O)c1ccc(Cl)cc1)C3 (centres unmarked) [Example 1b],71
5,Cc1ccc(C(=O)N2CCc3c(sc4c3C(c3ccccc3Cl)=NC(C)c3nnc(C)n3-4)C2)cc1 (centres unmarked) [Example 20],22
6,Cc1nnc2n1-c1sc3c(c1C(c1ccccc1Cl)=NC2C)CCN(C(=O)c1ccc(C(C)(C)C)cc1)C3 (centres unmarked) [Example 25],2.4
7,COc1ccc(C(=O)N2CCc3c(sc4c3C(c3ccccc3Cl)=NC(C)c3nnc(C)n3-4)C2)cc1 (centres unmarked) [Example 29],7.8
8,Cc1nnc2n1-c1sc3c(c1C(c1ccccc1Cl)=NC2C)CCN(C(=O)c1ccc(C(F)(F)F)cc1)C3 (centres unmarked) [Example 67],2.8
9,Cc1nnc2n1-c1sc3c(c1C(c1ccccc1Cl)=NC2C)CCN(C(=O)C(C)(C)C)C3 (centres unmarked) [Example 73],10
10,CCc1ccc(C(=O)N2CCc3c(sc4c3C(c3ccccc3Cl)=NC(C)c3nnc(C)n3-4)C2)cc1 (centres unmarked) [Example 82],2.5
